Like-named read-outs stand apart in the source and are kept apart here.
Columns and labels:
[1] = Analysis of chemical structure stability; format: physicochemical
Excerpt: This is because of the instability of —C═N— bond. Therefore we have synthesized a reduced version of ARN4261dubbed ARN2966 (2-[(pyridine-2-ylmethyl)-amino]-phenol, MW 200.2 Da, Log P 1.96).

[2] = test system: SK-N-SH human neuroblastoma cells; assay: Toxicity by MTT cell viability and LDH release assays; format: cell-based
Description: The effect of 0.01-100 μmol/L concentrations of investigational compounds was tested on the viability of the N2a murine neuroblastoma cell line (American Type Culture Collection, Manassas, Va.). N2a cells were grown in Eagle's minimal essential medium with the addition of 10% fetal bovine serum, streptomycin and gentomycin (Sigma, St. Louis, Mo.), harvested with 2% trypsin and plated at 10,000 cells/100 μL per well in flatbottom, 96-well microtiter plates. The cells were allowed to attach to the plate overnight in an incubator (37° C., 5% CO2) and in the following morning stocks of investigational compounds (50 mmol/L stock diluted in DMSO) were added to cells to achieve the final concentration 0.01-100 μmol/L. Adequate amounts of DMSO (Dimethyl sulfoxide, Sigma, St. Louis, Mo.) were added to control cells. Cells were grown in the presence of investigational compounds for 48 h and then their viability was assessed using a metabolic assay, which is based on cleavage of the yellow tetrazolium salt (MTT) to purple formazan crystals by viable cells. The MTT assay (Roche Molecular Biochemicals, Indianapolis, Ind.) was performed according to the manufacturer's instructions. The results from cell culture neurotoxicity studies were evaluated by one-way analysis of variance, followed by a Dunnett's test as a post hoc analysis.
As shown in FIG. 2 (MTT assay), the compounds were tested for toxicity in SK-N-SH human neuroblastoma cells using MTT cell viability and LDH release (membrane integrity) assays.

Aβ40 [3] = assay: Secretion of Aβ40 by 751APPSW CHO cells (sandwich ELISA); format: cell-based; settings: 48 hr; for Emax: read-out: EMAX of Aβ40 production inhibition; for IC50: read-out: IC50% of Aβ40 production
Description: (§1) In addition to studying the effect of ARN4261 and ARN2966 on Aβ oligomerization and fibrillization, we have explored their properties in respect to the modulation of Aβ production using CHO clones stably transfected with WT human APP751 and double Swedish APP751 mutant (KM670/671NL). The results in FIGS. 3(A) and 3(B) show inhibitory effect of ARN4261 and ARN2966 on secretion of Aβ40 and Aβ42 by 751APPSW CHO cells exposed to ARN compounds for 48 hr. Values are expressed as % of Aβ40 and Aβ42 levels in conditioned media (CM) of untreated cells. FIG. 3(C) Concentrations of Aβ40 and Aβ42 in 751APPSWCHO cell CM under increasing concentrations of ARN2966. 751APPSWCHO cells secrete Aβ40 and Aβ42 in proportions 9:1, akin to the proportions of Aβ peptides produced by neurons. […] Aβ40 and Aβ42 levels were determined using sandwich ELISA where C-terminal specific anti Aβ40 and Aβ42 mAbs were used as capture Abs and biotinylated 4G8 as the detection Ab. […] We also confirmed that ARN2966 inhibited secretion of Aβ by primary neuronal cultures derived from Tg2576 AD Tg mice.

[4] = Pharmacokinetic characterization including BBB permeability; format: in vivo, CD-1 WT mice; settings: for Brain Cmax / Cmax: mean ±SD; for F (fraction dose absorbed): accounted for po and iv dose difference; for half-life: read-out: Plasma t1/2 (converted)
Description: Pharmacokinetic characterization including BBB permeability of ARN2966 was performed in three months old, male CD-1 WT mice, which received a single oral (po; 25 mg/kg) or intravenous (iv; 5 mg/kg) dose of ARN2966 and were sacrificed 0.25, 0.5, 1, 2, 8, and 24 hr later (n=3 per time point). Plasma and brain concentration of ARN2966 were determined using liquid chromatography-mass spectrometry (LC/MS) (Table I). […] 64.2% of its orally administered dose was absorbed from the alimentary tract. […] This is because of the instability of —CH═N— bond. Therefore, we focused on PK/BBB permeability characterization of ARN2966, where —CH═N— bond was reduced to —CH2—NH—.

APPSW/PS1dE9 mice = assay: In vivo toxicity during four-month treatment; settings: 50 mg/kg/day ip, age six to ten months
Description: Female APPSW/PS1dE9 mice received ARN2966 (n=10) or Vehicle (n=15) from the age of six to ten months. ARN2966 (50 mg/kg/day) was given once a day by intraperitoneal injection. […] After conclusion of the experiments, samples of organs from ARN2966 and Vehicle treated animals were subjected to histopathological evaluation conducted by a veterinary pathologist. […] Signs of mild chronic peritonitis related to repeated daily intraperitoneal compound injection, however, were reported in both groups.

APP = assay: 35S-Methionine pulse labeling of APP in 751APPSW CHO cells; format: cell-based, human
Description: D. APP was immunoprecipitated with 22C11 mAb against its N-terminus. Representative radiographs (B) and densitometric results averaged from three independent experiments are shown (A). […] Two sets of experiments were conducted using either actin or GAPDH as housekeeping genes.

Aβ40 [5] = assay: Aβ40 secretion by primary hippocampal neurons derived from Tg2576 AD Tg mice; format: cell-based; settings: 10 μM, primary neuronal cultures from Tg2576 mice
Description: as §1

[6] = male, CD-1, mouse, plasma, IV - 5 mg/kg, mice
[7] = male, CD-1, mouse, plasma, PO - 25 mg/kg, mice

SMILES: Oc1ccccc1N=Cc1ccccn1 [ARN4261, 2-(Pyridin-2-ylmethyleneamino)-phenol]
- chemical structure stability [1]: prone to self-decomposing
- stability in acidic pH ([1]; acidic pH): easily degradable in acidic pH
- toxicity ([2]; 0.1-100 μM): no toxicity
- Emax (Aβ40 [3]): 97.4 ± 0.25%
- IC50 (Aβ40 [3]): 820 nM

SMILES: Oc1ccccc1NCc1ccccn1 [ARN2966, 2-[(pyridine-2-ylmethyl)-amino]-phenol]
- toxicity ([2]; test not specified): not toxic
- Brain Cmax ([4]; IV - 5 mg/kg, mice, 5 mg/kg): 21.4 µg/kg
- Brain Cmax ([4]; IV - 5 mg/kg, mice, listed as ARN 2966, 5 mg/kg): 21.4 ± 2.7 µg/kg
- F (fraction dose absorbed) ([4]; PO - 25 mg/kg, 25 mg/kg): 64.2%
- F (fraction dose absorbed) ([4]; PO - 25 mg/kg, listed as ARN 2966, 25 mg/kg): 64.20%
- Brain Cmax ([4]; PO - 25 mg/kg, mice): 12.5 ± 2.3 µg/kg
- maximal brain concentration ([4]; after iv dosing, 5 mg/kg): 0.11 µM
- Tmax ([4]; male, CD-1, mouse, brain, IV - 5 mg/kg, mice, read-out: Brain Tmax): 15 min
- Tmax ([4]; male, CD-1, mouse, brain, PO - 25 mg/kg, mice, read-out: Brain Tmax): 30 min
- AUC(0-inf) [4, 6]: 1230 ng·h/mL
- clearance [4, 6]: 67.8 mL/min/kg
- Cmax [4, 6]: 1030 ± 440 ng/mL
- Tmax ([4]; male, CD-1, mouse, plasma, IV - 5 mg/kg, mice, read-out: Plasma Tmax): 15 min
- half-life [4, 6]: 368 min
- Vd ([4]; male, CD-1, mouse, plasma, IV - 5 mg/kg, mice, read-out: Vz): 36 L/kg
- AUC(0-inf) [4, 7]: 3950 ng·h/mL
- Cmax [4, 7]: 2660 ± 382 ng/mL
- Tmax ([4]; male, CD-1, mouse, plasma, PO - 25 mg/kg, mice, read-out: Plasma Tmax): 30 min
- half-life [4, 7]: 215 min
- body weight / weight gain (APPSW/PS1dE9 mice): proper rate of age related weight gain
- histopathological evaluation of organs (APPSW/PS1dE9 mice): No signs of ARN2966 toxicity
- physical appearance, unprovoked behavior, response to external stimuli (APPSW/PS1dE9 mice): no noticeable changes in physical appearance, unprovoked behavior or response to external stimuli
- reduction of translation of APP (APP; 25 μM, 2 h 35S-Methionine pulse): 61.5%
- incorporation of 35S-Methionine by APP during translation (APP; 751APPSW CHO cells): significantly reduced incorporation of 35S-Methionine by APP
- translation of β-actin (APP; 751APPSW CHO cells): remained unaltered
- lowering of Aβ40 concentration in the conditioned media (Aβ40 [5]): 61.4%
- Emax (Aβ40 [3]): 97 ± 0.3%
- IC50 (Aβ40 [3]): 810 nM

Reference: patent US8658677B2, “Pyridyl-2-methylamino compounds, compositions and uses thereof” (Aria Neurosciences Inc., priority 2011, dated 2014)
